From US7795272B2, “Glucocorticoid mimetics, methods of making them, pharmaceutical compositions and uses thereof” (Boehringer Ingelheim Pharmaceutical, Inc., priority 2004, dated 2010)

What was measured:
[1] = molecular target: T1, human glucocorticoid receptor (GR) complex (Homo sapiens, UniProt P04150); assay: Glucocorticoid receptor competitive binding assay (fluorescence polarization); settings: competition with TAMRA-labeled dexamethasone; result in words only
T1 construct: made in house; host or cells: insect cells (baculovirus expression), used as crude lysate
T1 sequence (P04150 1-777): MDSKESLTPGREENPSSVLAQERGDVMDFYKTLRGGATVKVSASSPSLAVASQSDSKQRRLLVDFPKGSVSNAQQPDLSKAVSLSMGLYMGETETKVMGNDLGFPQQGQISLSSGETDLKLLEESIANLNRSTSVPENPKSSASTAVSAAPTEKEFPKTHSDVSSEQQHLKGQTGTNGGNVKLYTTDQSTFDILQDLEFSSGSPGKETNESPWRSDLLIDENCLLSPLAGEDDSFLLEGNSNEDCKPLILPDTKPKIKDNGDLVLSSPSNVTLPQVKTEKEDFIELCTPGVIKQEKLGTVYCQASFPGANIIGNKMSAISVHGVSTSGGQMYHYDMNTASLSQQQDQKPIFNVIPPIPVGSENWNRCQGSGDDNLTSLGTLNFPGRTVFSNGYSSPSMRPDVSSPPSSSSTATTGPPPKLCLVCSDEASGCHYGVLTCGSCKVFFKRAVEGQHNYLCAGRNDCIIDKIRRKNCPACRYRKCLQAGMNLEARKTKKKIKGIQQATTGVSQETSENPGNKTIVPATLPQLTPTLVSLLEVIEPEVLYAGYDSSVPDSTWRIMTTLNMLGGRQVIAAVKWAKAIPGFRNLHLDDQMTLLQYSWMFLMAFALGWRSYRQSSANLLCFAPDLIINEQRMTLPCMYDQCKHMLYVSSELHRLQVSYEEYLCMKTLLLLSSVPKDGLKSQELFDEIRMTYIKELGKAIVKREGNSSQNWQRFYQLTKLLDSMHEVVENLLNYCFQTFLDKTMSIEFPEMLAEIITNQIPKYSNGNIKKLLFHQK
Method: Compounds of the invention were evaluated for binding to the steroid receptor by a fluorescence polarization competitive binding assay. Detailed descriptions for preparation of recombinant glucocorticoid receptor (GR) complex used in the assay is described in U.S. Patent Application Publication No. US 2003/0017503, filed May 20, 2002, and incorporated herein by reference in its entirety. Preparation of the tetramethyl rhodamine (TAMRA)-labeled dexamethasone probe was accomplished using a standard literature procedure (M. Pons et al., J. Steroid Biochem., 1985, 22, pp. 267-273).
A. Glucocorticoid Receptor Competitive Binding Assay
The affinity of the probe for the steroid receptor was then determined in a titration experiment. The fluorescence polarization value of the probe in assay buffer was measured on an SLM-8100 fluorometer using the excitation and emission maximum values described above. Aliquots of expression vector lysate were added and fluorescence polarization was measured after each addition until no further change in polarization value was observed. Non-linear least squares regression analysis was used to calculate the dissociation constant of the probe from the polarization values obtained for lysate binding to the probe.
(§1) This assay uses fluorescence polarization (FP) to quantitate the ability of test compounds to compete with tetramethyl rhodamine (TAMRA)-labeled dexamethasone for binding to a human glucocorticoid receptor (GR) complex prepared from an insect expression system. The assay buffer was: 10 mM TES, 50 mM KCl, 20 mM Na2MoO4.2H2O, 1.5 mM EDTA, 0.04% w/v CHAPS, 10% v/v glycerol, 1 mM dithiothreitol, pH 7.4. Test compounds were dissolved to 1 mM in neat DMSO and then further diluted to 10× assay concentration in assay buffer supplemented with 10% v/v DMSO. Test compounds were serially diluted at 10× assay concentrations in 10% DMSO-containing buffer in 96-well polypropylene plates. Binding reaction mixtures were prepared in 96-well black Dynex microtiter plates by sequential addition of the following assay components to each well: 15 μL of 10× test compound solution, 85 μL of GR-containing baculovirus lysate diluted 1:170 in assay buffer, and 50 μL of 15 nM TAMRA-labeled dexamethasone. Positive controls were reaction mixtures containing no test compound; negative controls (blanks) were reaction mixtures containing 0.7 μM to 2 μM dexamethasone. The binding reactions were incubated for 1 hour at room temperature and then read for fluorescence polarization in the LJL Analyst set to 550 nm excitation and 580 nm emission, with the Rhodamine 561 dichroic mirror installed. IC50 values were determined by iterative non-linear curve fitting of the FP signal data to a 4-parameter logistic equation.

glucocorticoid receptor = assay: Glucocorticoid receptor function, one or more of the above assays (not specified which); format: cell-based; settings: in one or more of the above assays; result in words only
Method: as §1, with “Positive controls were reaction mixtures containing no test compound; negative controls (blanks) were reaction mixtures containing 0.7 μM to 2 μM dexamethasone.” left out
Dexamethasone, a synthetic ligand to the glucocorticoid receptor (GR), induces expression of aromatase in human foreskin fibroblast cells. The activity of aromatase is measured by the conversion of testosterone to estradiol in culture media.
Human foreskin fibroblast cells (ATCC Cat. No. CRL-2429, designation CCD112SK) are plated on 96 well plates at 50,000 cells per well 5 days before use, in Iscove's Modified Dulbecco's Media (GibcoBRL Life Technologies Cat No. 12440-053) supplemented with 10% charcoal filtered FBS (Clonetech Cat No. SH30068) and Gentamycin (GibcoBRL Life Technologies Cat. No. 15710-064). […] The extent of aromatase induction by test compounds is expressed as a relative percentage to dexamethasone. […]

SMILES | activity in the GR binding assay [1] | activity as an agonist of the glucocorticoid receptor function (glucocorticoid receptor)
CC1(CC(O)(Cc2ccnc3ccccc23)C(F)(F)F)CCc2ccccc21 (stereo not drawn) [1,1,1-Trifluoro-3-(1-methylindan-1-yl)-2-quinolin-4-ylmethylpropan-2-ol] | potent activity | 
CC1(CC(O)(Cc2cc3ccccc3[nH]2)C(F)(F)F)CCOc2ccc(F)cc21 (stereo not drawn) [1,1,1-Trifluoro-3-(6-fluoro-4-methylchroman-4-yl)-2-(1H-indol-2-ylmethyl)propan-2-ol] | potent activity | activity as an agonist
CC1(CC(O)(Cc2ccnc3ccccc23)C(F)(F)F)CCOc2ccc(F)cc21 (stereo not drawn) [1,1,1-Trifluoro-3-(6-fluoro-4-methylchroman-4-yl)-2-quinolin-4-ylmethylpropan-2-ol] |  | activity as an agonist
OC(Cc1ccnc2ccccc12)(CC1CCOc2ccc(F)cc21)C(F)(F)F (stereo not drawn) [1,1,1-Trifluoro-3-(6-fluorochroman-4-yl)-2-quinolin-4-ylmethylpropan-2-ol] | potent activity | 

Now from value to molecule:

activity in the GR binding assay [1] | activity as an agonist of the glucocorticoid receptor function (glucocorticoid receptor) | SMILES
potent activity |  | Cc1cc(C#N)cc2[nH]c(CC(O)(CC3(C)CCOc4ccc(S(C)(=O)=O)cc43)C(F)(F)F)cc12 (stereo not drawn) [4-Methyl-2-[3,3,3-trifluoro-2-hydroxy-2-(6-methanesulfonyl-4-methylchroman-4-ylmethyl)propyl]-1H-indole-6-carbonitrile]
potent activity | activity as an agonist | Cc1cc(C#N)cc2[nH]c(CC(O)(CC3(C)CCOc4ccc(F)cc43)C(F)(F)F)cc12 (stereo not drawn) [4-Methyl-2-[3,3,3-trifluoro-2-(6-fluoro-4-methylchroman-4-ylmethyl)-2-hydroxypropyl]-1H-indole-6-carbonitrile]
potent activity |  | CC1(CC(O)(Cc2ccc(C#N)cc2Cl)C(F)(F)F)CCOc2ccc(F)cc21 (stereo not drawn) [3-Chloro-4-[3,3,3-trifluoro-2-(6-fluoro-4-methylchroman-4-ylmethyl)-2-hydroxypropyl]benzonitrile]
